Literature values in patent publication US20110236538A1, “CHITIN DERIVATIVE AND NATURAL SWEETENER CONJUGATE FOR CONTROLLING INGESTED FAT IN HUMANS AND HAVING SWEETENING PROPERTIES” (priority 2008, published 2011).

Settings: successive lines = successive pKa of di- and trivalent acids

O=C(O)C(Cl)(Cl)Cl [Trichloroacetic]
pKa (25° C.): 0.70
